Results taken from US20220125042A1, “CRYOPROTECTANT AND/OR CRYOPRESERVANT COMPOSITION, METHODS AND USES THEREOF” (UNIVERSIDADE NOVA DE LISBOA, priority 2017, published 2022).

Tests used:
L929 cell lines = assay: Direct contact of NADES with cell culture, viability by MTS assay; format: cell-based; conditions: FIG. 3
Procedure: In an embodiment, the L929 cell lines were grown in DMEM (Sigma, USA), supplemented with 10% heat-inactivetes fetal bovine serum (FBS, Biochron AG, Germany) and 1% antibiotic-antimicotic (Gibco, USA). The cells were cultured in a humidified atmosphere of 37° C., with 5% CO2.
In an embodiment, the viability of the systems prepared was measured using a method of direct contact with cells (Direct−contact of NADES with cell culture). The cells were seeded onto a 96-well plate for 24 h in the total 1×10^4 cells/well. After 24 h, the medium was removed and extracts with different percentage of NADES, in particular 1%, 5%, 10% and 20% in culture medium were added. The viability of the cells cultured with these extracts was determined by MTS assay, after 24 h and 72 h.
In an embodiment, the MTS cell viability assay was conducted as follows: the influence of the cryopreservants was determined by MTS assay (Cell Titer 96 Aqueous One Solution Cell Proliferation Assay, Promega, USA) after 24 h and 72 h of culture. […] The absorbance was measured at a wavelength of 490 nm using a microplate spectrometer (Synergy HT, Bio-TEK, USA). To the results of absorbance was subtracting the absorbance obtained by blank (culture medium MTS with MTS reagent). […]

L929 cell line = assay: Cryopreservation (freezing/thawing) of cells with cryoprotective agent; morphology, live-dead, DAPI-Phalloidin and MTS viability after thawing; format: cell-based; conditions: 10% cryopreservant, FIG. 4
Procedure: In an embodiment, the cells were freezed and thawed, in particular the cells were collected by centrifugation (300 rpm for 5 min) and suspended in cool mixture with FBS and cryopreservant (DMSO or Treh-Gly; 5% and 10% cryopresenvant in the FBS). The cells and freezing medium were dispensed into cryotubes (Nunc) (1×10^6 cells/1 mL), and immediately placed into a freezing box (Mr. Frosty) at −20° C. for 2 h. Latter they were placed for 24 h at −80° C. and then the cryotubes were placed in liquid nitrogen. The cells were frozen for 1, 2 and 3 months. As control trehalose and glycerol alone were used in the same concentration. […] In an embodiment, the MTS cell viability assay was conducted as follows: the influence of the cryopreservants was determined by MTS assay (Cell Titer 96 Aqueous One Solution Cell Proliferation Assay, Promega, USA) after 24 h and 72 h of culture. […] The absorbance was measured at a wavelength of 490 nm using a microplate spectrometer (Synergy HT, Bio-TEK, USA). To the results of absorbance was subtracting the absorbance obtained by blank (culture medium MTS with MTS reagent). In an embodiment, the live/dead cell viability assay was used (calcein AM/propidium iodide (PI) staining) (n=5 samples per well) to evaluated cell viability. […] In an embodiment, in vitro biological evaluation of NADES performance as cryopreservant was assessed using the L929 cell line. […]

SMILES: C[S+](C)[O-] [DMSO]
- cell viability in contact with cells (L929 cell lines; 10% and 20% in the culture media): cell dead
- cell viability in contact with cells (L929 cell lines; low concentrations, 1 or 5% in culture media): very low viability

SMILES: OCC(O)CO [glycerol]
- morphological analysis and cell viability after cryopreservation (L929 cell line): somewhat compromised

SMILES: OC[C@H]1O[C@H](O[C@H]2O[C@H](CO)[C@@H](O)[C@H](O)[C@H]2O)[C@H](O)[C@@H](O)[C@@H]1O [trehalose]
- morphological analysis and cell viability after cryopreservation (L929 cell line): somewhat compromised
